Measured values taken from patent US9115061B2, “Naphthalene-based inhibitors of anti-apoptotic proteins” (BURNHAM INSTITUTE FOR MEDICAL RESEARCH, priority 2007, dated 2015).
Where two headings read alike, the source gives them in different places.

Experiments:
BCL-XL [1] = molecular target: T1, BCL-XL (Homo sapiens (Human), UniProt Q07817); assay: 1D 1H-NMR binding assay; conditions: for 1D 1H-NMR Binding Assay (BCL-XL): 4-point-rating scale, compounds 200 μM, BCL-XL 25 μM; as to 1D 1H-NMR Binding Assay (BCL-XL): key: +++: Very Active; ++: Active; +: Mild; −: Weak
T1 sequence (Q07817 whole entry): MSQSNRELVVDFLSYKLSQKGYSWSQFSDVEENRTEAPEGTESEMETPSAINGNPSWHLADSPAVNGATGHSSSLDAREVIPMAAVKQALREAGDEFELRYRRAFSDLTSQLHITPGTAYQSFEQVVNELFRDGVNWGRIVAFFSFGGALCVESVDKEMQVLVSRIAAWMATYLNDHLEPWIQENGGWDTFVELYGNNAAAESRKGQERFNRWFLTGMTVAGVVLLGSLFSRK
Experimental: By observing the aliphatic region of the spectra, binding could be readily detected due to chemical shift changes in active site methyl groups of Ile, Leu, Thr, Val or Ala (region between −0.8 and 0.3 ppm). All experiments were performed with a 600 MHz spectrometer Bruker Avance 600 equipped with four rf channels and z-axis pulse-field gradients.

GST-BCL-XL ΔTM protein = GST-BCL-XL ΔTM protein (Homo sapiens (Human), UniProt Q07817); assay: Competitive fluorescence polarization assay (FITC-Bak BH3 peptide); type: binding; conditions: for EC50: Table 3, read-out: EC50 FPA BCL-XL
Chain of GST-BCL-XL ΔTM protein (Q07817 1-209): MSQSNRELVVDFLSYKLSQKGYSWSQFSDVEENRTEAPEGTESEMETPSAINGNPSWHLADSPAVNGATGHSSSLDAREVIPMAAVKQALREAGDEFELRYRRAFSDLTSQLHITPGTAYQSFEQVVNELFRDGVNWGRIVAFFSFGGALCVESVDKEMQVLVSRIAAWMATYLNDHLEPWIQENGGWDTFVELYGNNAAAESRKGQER
Experimental: For competitive binding assays, 100 nM GST-BCL-XL ΔTM protein was preincubated with the tested compound at varying concentrations in 47.5 μL PBS (pH=7.4) in 96-well black plates at room temperature for 10 min, then 2.5 μL of 100 nM FITC-labeled Bak BH3 peptide was added to produce a final volume of 50 μL. The wild-type and mutant Bak BH3 peptides were included in each assay plate as positive and negative controls, respectively.
(§1) IC50 was determined by fitting the experimental data to a sigmoidal dose-response nonlinear regression model (SigmaPlot 10.0.1, Systat Software, Inc., San Jose, Calif., USA). Data reported are mean of three independent experiments ±standard error (SE). […] Fluorescence polarization was measured after 10 min.

GST-BCL-2 = GST-BCL-2 (Homo sapiens (Human), UniProt P10415); assay: Fluorescence polarization assay (FITC-Bim BH3 peptide); type: binding; conditions: for EC50: read-out: EC50 FPA BCL-2
Chain of GST-BCL-2 (P10415 whole entry): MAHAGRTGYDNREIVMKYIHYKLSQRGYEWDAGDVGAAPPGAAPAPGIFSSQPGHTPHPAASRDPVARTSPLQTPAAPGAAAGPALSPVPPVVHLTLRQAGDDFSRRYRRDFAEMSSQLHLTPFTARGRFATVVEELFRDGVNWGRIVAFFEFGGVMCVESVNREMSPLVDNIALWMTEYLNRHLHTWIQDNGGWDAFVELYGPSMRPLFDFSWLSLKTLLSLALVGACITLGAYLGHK
Experimental: as §1, with “After 30 min incubation at room temperature, the polarization values in millipolarization units were measured at excitation/emission wavelengths of 480/535 nm with a multilabel plate reader (PerkinElmer). IC50” for “IC50”, “(SE). Performance of BCL-2 and Mcl-1 FPA are similar.” for “(SE).”

GST-Mcl-1 = GST-Mcl-1 (Homo sapiens (Human), UniProt Q07820); assay: as above; type: binding; conditions: for EC50: read-out: EC50 FPA Mcl-1
Chain of GST-Mcl-1 (Q07820 whole entry): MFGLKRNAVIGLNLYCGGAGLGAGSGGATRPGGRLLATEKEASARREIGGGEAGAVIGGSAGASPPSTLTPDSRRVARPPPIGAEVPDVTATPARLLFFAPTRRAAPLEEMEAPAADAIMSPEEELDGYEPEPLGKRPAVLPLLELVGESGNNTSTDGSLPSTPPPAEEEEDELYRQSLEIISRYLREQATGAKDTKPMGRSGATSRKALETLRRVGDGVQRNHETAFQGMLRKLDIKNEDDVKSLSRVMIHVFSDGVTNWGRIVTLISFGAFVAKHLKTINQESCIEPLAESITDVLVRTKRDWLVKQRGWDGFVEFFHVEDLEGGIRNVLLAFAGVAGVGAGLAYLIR
Experimental: as §1, with “After 30 min incubation at room temperature, the polarization values in millipolarization units were measured at excitation/emission wavelengths of 480/535 nm with a multilabel plate reader (PerkinElmer). IC50” for “IC50”

BCL-XL [2] = molecular target: T1, BCL-XL; assay: Isothermal titration calorimetry (ITC); type: binding; conditions: for Kd: 25° C., pH 7.4
Experimental: Titrations were performed using a VP-ITC or ITC200 calorimeter from Microcal (Northampton, Mass.). BCL-XL was used at concentrations between 25 and 100 μM in 20 mM sodium phosphate buffer (pH 7.4) and 5-10% DMSO. Titrants were used at concentrations 10-15× of the protein in the same buffer. Titrations were carried out at 25° C. Data were analyzed using Microcal Origin software provided by the ITC manufacturer (Microcal, Northampton, Mass.).

H460 cell line = assay: Cell viability, ATP-LITE assay; type: cell-based, human
Experimental: (§2) The activity of the compounds against human cancer cell lines (PC3ML, H460, H1299, RS11846) were assessed by using the ATP-LITE assay (PerkinElmer). All cells were seeded in either F12 or RPMI1640 medium with 5 mM L-glutamine supplemented with 5% fetal bovine serum (Mediatech Inc.), penicillin and streptomycin (Omega). For maintenance, cells were cultured in 5% FBS. Cells plated into 96 well plates at varying initial densities depending on doubling time. H460 and H1299 plated at 2000 cells/well, A549 and PC3 at 3000 cells/well, and RS118456S at 10,000 cells/well. Compounds were diluted to final concentrations with 0.1% DMSO. Prior to dispensing compounds onto cells, fresh 5% media was placed into wells. Administration of compounds occurred 24 hours after seeding into the fresh media. Cell viability was evaluated using ATP-LITE reagent (PerkinElmer) after 72 hours of treatment. Data were normalized to the DMSO control-treated cells using Prism version 5.01 (Graphpad Software).

PC3ML cells = assay: Cell viability, ATP-LITE assay; type: cell-based, human
Experimental: as §2

RS11846 cell line = assay: Apoptosis, Annexin V and propidium iodide assay; type: cell-based, human
Experimental: The apoptotic activity of the compounds against RS11846 cells was assessed by staining with Annexin V- and propidium iodide (PI). Lymphoma cell line, RS11846, was cultured in RPMI 1640 medium (Mediatech Inc., Herndon, Va. 20171) containing 10% fetal bovine serum (Mediatech Inc., Herndon, Va. 20171) and Penicillin/Streptomycin (Mediatech Inc., Herndon, Va. 20171). […] The percentage of viable cells was determined by FITC-Annexin V- and propidium iodide (PI)-labeling, using an Apoptosis Detection kit (BioVision Inc.), and analyzing stained cells by flow cytometry (FACSort; Bectin-Dickinson, Inc.; Mountain View, Calif.). Cells that were annexin-V-negative and PI-negative were considered viable.

Plasma stability = type: in vitro ADME, rat; conditions: for Plasma Stability (T = 1 hr): rat plasma, 37.5° C.
Experimental: A 20 μL aliquot of a 10 mM solution in DMSO of the test compound was added to […] of heparinized rat plasma (Lampire, P1-150N) to obtain a 100 μM final solution. The mixture was incubated for 1 h at 37.5° C. Aliquots of 100 μL were taken (0, 30 min, 1 h) and diluted with 200 μL of MeOH containing internal standard.

B6BCL2 mouse = assay: Spleen weight in B6BCL2 transgenic mice after intraperitoneal injection; type: in vivo
Experimental: Transgenic mice expressing BCL-2 have been described as the B6 line. The BCL-2 transgene represents a minigene version of a t(14;18) translocation in which the human BCL-2 gene is fused with the immunoglobulin heavy-chain (IgH) locus and associated IgH enhancer. The transgene was propagated on the Balb/c background.
After 24 hours, B6BCL2 mice were sacrificed by intraperitoneal injection of lethal dose of Avertin. Spleen was removed and weighed. […] Spleen tissue was fixed in z-FIX for 3 days and rinsed in PBS, and saved for histological analysis of spleen (H&E staining and TUNEL assay).

[3] = Liver microsomal stability; conditions: rat liver microsomes, 4 μM, 60 min
Experimental: Pooled rat liver microsomes (BD Biosciences, #452701) were preincubated with test compounds at 37.5° C. for 5 min in the absence of NADPH. The reaction was initiated by addition of NADPH and then incubated under the same conditions. […] One aliquot (100 μL) of the incubation mixture was withdrawn at 0, 15, 30, and 60 min and combined immediately with 200 μL of ACN/MeOH containing an internal standard. After mixing, the sample was centrifuged at approximately 13,000 rpm for 12 min. The supernatant was transferred into an autosampler vial and the amount of test compound was quantified using the Shimadzu LCMS 2010EV mass spectrometer. The change of the AUC (area under the curve) of the parent compound as function of time was used as a measure of microsomal stability.

[4] = PAMPA (parallel artificial membrane permeation assay); conditions: for Cell Permeability: PAMPA, pH 7.2, 8 h
Experimental: PAMPA is parallel artificial membrane permeation assay. A 96-well microtiter plate (Millipore, # MSSACCEPTOR) was completely filled with aqueous buffer solution (pH 7.2) and covered with a microtiter filterplate (Millipore, # MAPBMN310). The hydrophobic filter material was impregnated with a 10% solution of hexadecane in hexane and the organic solvent was allowed to completely evaporate. Permeation studies were started by the transfer of 200 μL of a 100 μM test compound solution on top of the filterplate. In general phosphate buffer at pH 7.2 buffer was used. The maximum DMSO content of the stock solutions was <5%. In parallel, an equilibrium solution lacking a membrane was prepared using the exact concentrations and specifications but lacking the membrane. The concentrations of the acceptor and equilibrium solutions were determined using the Shimadzu LCMS-2010EV and AUC methods. The permeation of a compound through the membrane layer is described by the percentage permeation (% flux). The flux values were calculated considering the concentration of the acceptor compartment after 8 h and that of a reference well with the same concentration containing no membrane barrier.

[5] = 1-2 days; read-out: RS11846 EC50 (Annexin V- and propidium iodide assay)

Structure (SMILES)	1D 1H-NMR Binding Assay (BCL-XL) (BCL-XL [1])	EC50 (GST-BCL-XL ΔTM protein)	EC50 (GST-BCL-2)	EC50 (GST-Mcl-1)	Kd (BCL-XL [2])	times more potent than apogossypol, H460 EC50 (H460 cell line)	EC50 (RS11846 cell line; [5])	Plasma Stability (T = 1 hr) (Plasma stability)	Microsomal Stability (T = 1 hr) [3]	Cell Permeability [4]	further results
Cc1cc2c(C(=O)Cc3ccccc3)c(O)c(O)cc2c(O)c1-c1c(C)cc2c(C(=O)Cc3ccccc3)c(O)c(O)cc2c1O [Compound I, 1,1′-(1,1′,6,6′,7,7′-hexahydroxy-3,3′-dimethyl-2,2′-binaphthyl-5,5′-diyl)bis(2-phenylethanone)]	+++	190 nM	360 nM	520 nM	170 nM	4-5 times	4900 nM	85%	64%	Medium	chemical shift changes in active site methyl groups of BCL-XL (BCL-XL [1]; 1D 1H-NMR spectra): significant chemical shift changes; times more effective than apogossypol, FP displacement BCL-XL (GST-BCL-XL ΔTM protein): ~20 times; fold more potent than apogossypol, BCL-2 FPA (GST-BCL-2): approximately 8 fold; fold more potent than apogossypol, Mcl-1 FPA (GST-Mcl-1): ~5 fold; times more potent than apogossypol, Kd ITC BCL-XL (BCL-XL [2]): 10 times; fold more potent than apogossypol, PC3ML EC50 (PC3ML cells): 2-5 fold; degraded after 1 hour incubation in rat plasma (Plasma stability; 1 hour): 15%; macroscopic toxicity (B6BCL2 mouse; mouse, in vivo): no macroscopic toxicity; reduction in spleen weight, single mouse (B6BCL2 mouse; single BCL-2 transgenic mouse, 60 μmol/kg, intraperitoneal, 24 hours): 40%; reduction of spleen weight, groups of six mice (B6BCL2 mouse; six mice, P<0.0001 vs control): ~40%; cell membrane permeability compared to apogossypol [4]: improved
Cc1cc2c(C(=O)c3ccccc3)c(O)c(O)cc2c(O)c1-c1c(C)cc2c(C(=O)c3ccccc3)c(O)c(O)cc2c1O [Compound VII, (1,1′,6,6′,7,7′-hexahydroxy-3,3′-dimethyl-2,2′-binaphthyl-5,5′-diyl)bis(phenylmethanone)]	+	–	–	–	–	–	–	–	–	–	EC50 (H460 cell line; 72 hours, ATP-LITE): 310 nM
Cc1cc2c(C(=O)c3cccc4ccccc34)c(O)c(O)cc2c(O)c1-c1c(C)cc2c(C(=O)c3cccc4ccccc34)c(O)c(O)cc2c1O [Compound VIII, (1,1′,6,6′,7,7′-hexahydroxy-3,3′-dimethyl-2,2′-binaphthyl-5,5′-diyl)bis(naphthalen-1-ylmethanone)]	+	160 nM	1900 nM	2200 nM	2750 nM	–	4200 nM	62%	52%	Low	–
Cc1cc2c(C(=O)c3ccc(C(F)(F)F)cc3)c(O)c(O)cc2c(O)c1-c1c(C)cc2c(C(=O)c3ccc(C(F)(F)F)cc3)c(O)c(O)cc2c1O [Compound XI, (1,1′,6,6′,7,7′-hexahydroxy-3,3′-dimethyl-2,2′-binaphthyl-5,5′-diyl)bis((4-(trifluoromethyl)phenyl)methanone)]	+	–	–	–	–	–	3800 nM	–	–	–	–
Cc1ccc(CC(=O)c2c(O)c(O)cc3c(O)c(-c4c(C)cc5c(C(=O)Cc6ccc(C)cc6)c(O)c(O)cc5c4O)c(C)cc23)cc1 [Compound XII, 1,1′-(1,1′,6,6′,7,7′-hexahydroxy-3,3′-dimethyl-2,2′-binaphthyl-5,5′-diyl)bis(2-p-tolylethanone)]	–	–	780 nM	1100 nM	–	4-5 times	–	72%	–	Low and Medium	EC50 (PC3ML cells; 72 hours, ATP-LITE): 2500 nM; EC50 (RS11846 cell line; read-out: RS11846 EC50 (Annexin V- and propidium iodide assay); 1-2 days): 3000 nM
Cc1cc2c(C(=O)c3nc4ccccc4s3)c(O)c(O)cc2c(O)c1-c1c(C)cc2c(C(=O)c3nc4ccccc4s3)c(O)c(O)cc2c1O [Compound XVII, (1,1′,6,6′,7,7′-hexahydroxy-3,3′-dimethyl-2,2′-binaphthyl-5,5′-diyl)bis(benzo[d]thiazol-2-ylmethanone)]	++	–	–	–	–	–	–	90%	68%	Medium	IC50 (GST-BCL-XL ΔTM protein; read-out: FPA IC50 (BCL-XL)): 390 nM
